Our source for the ring closure, yield over several steps values is publication PMC9552235.

This data set can be described thus: Macrolactamisation (Trp/pyrroloindoline CO2H + Val NH2): HATU 1.2 equiv pre-activation, slow syringe-pump addition to Et3N (15 equiv; 1.2 equiv for 12), after TFA N-Boc removal. The settings on record: CH2Cl2/DMF (10:1 to 40:1), 0.6 mM, 2 steps.

The structures appear in SMILES notation.

As to `C=CC(C)(C)[C@]12C[C@H]3C(=O)N[C@@H](C(C)C)C(=O)Nc4ccccc4C(=O)N(c4ccccc41)[C@H]2N3C(C)=O` [(S)-exo-40 -> L-Trp-regio-exo-4 (moderately pure, unstable)], the ring closure, yield over several steps (from C=CC(C)(C)[C@@]12C[C@@H](C(=O)O)N(C(C)=O)[C@@H]1N(C(=O)c1ccccc1NC(=O)[C@@H](N)C(C)C)c1ccccc12, 12-membered ring, 15.0 h) came out at 21%.
As for `CC(=O)N[C@@H]1Cc2cn(c3ccccc23)C(=O)c2ccccc2NC(=O)[C@H](C(C)C)NC1=O` [H-L-Val-(2-aminobenzoyl)-(N-indole)-Ac-D-Trp-OH], the ring closure, yield over several steps (from CC(=O)N[C@H](Cc1cn(C(=O)c2ccccc2NC(=O)[C@@H](N)C(C)C)c2ccccc12)C(=O)O, 13-membered ring, 84.0 h) is 14%.
Turning to `C=CC(C)(C)[C@]12C[C@@H]3C(=O)N[C@@H](C(C)C)C(=O)Nc4ccccc4C(=O)N(c4ccccc41)[C@H]2N3C(C)=O` [endo-40 -> D-Trp-regio-endo-4], the ring closure, yield over several steps (from C=CC(C)(C)[C@@]12C[C@H](C(=O)O)N(C(C)=O)[C@@H]1N(C(=O)c1ccccc1NC(=O)[C@@H](N)C(C)C)c1ccccc12, 12-membered ring, 24.0 h) was found to be 61%.
On to `C=CC(C)(C)[C@@]12C[C@@H]3C(=O)N[C@@H](C(C)C)C(=O)Nc4ccccc4C(=O)N(c4ccccc41)[C@@H]2N3C(C)=O`, for which the ring closure, yield over several steps (from C=CC(C)(C)[C@]12C[C@H](C(=O)O)N(C(C)=O)[C@H]1N(C(=O)c1ccccc1NC(=O)[C@@H](N)C(C)C)c1ccccc12, 12-membered ring, 37.0 h) worked out at 0%.
With `C=CC(C)(C)[C@@]12C[C@H]3C(=O)N[C@@H](C(C)C)C(=O)Nc4ccccc4C(=O)N(c4ccccc41)[C@@H]2N3C(C)=O` [(S)-endo-40 -> L-Trp-regio-endo-4], where the note is “from C=CC(C)(C)[C@]12C[C@@H](C(=O)O)N(C(C)=O)[C@H]1N(C(=O)c1ccccc1NC(=O)[C@@H](N)C(C)C)c1ccccc12, 12-membered ring, 22.0 h”, the ring closure, yield over several steps is 37%.
